# Measurements as given in paper PMC6269653, “Stability and Antioxidant Activity of Semi-synthetic Derivatives of 4-Nerolidylcatechol” (Molecules, 2012).
# “And” between values parts separate entries of the source, which are not always exact repeats. Equal values may be shown once. “Also recorded” adds a separate entry of the source. Read-outs that look alike come from different tables or passages of the source. Marks after values point to notes of the source that are not given here.
# Experiments:
# [1] = test system: melanoma cell lines (SK-Mel-28, 103 and 147); set-up: method as in PMID 19059332; details: read-out: IC50 in vitro growth of melanoma cell lines; cited from earlier work
# [2] = test system: Mouse embryonic fibroblast cells (3T3L1 line); assay: Cell viability assay (alamar blue); type: cell-based; details: ‡ >50 µg/mL, read-out: Toxicity Mouse embryonic fibroblast cells (3T3L1 line) (IC50)
# Experimental: The cytotoxicity of 4-NC and derivatives of 4-NC 1–8 to mouse embryonic fibroblast line 3T3L1 was evaluated using alamar blue to measure cell survival/proliferation. The substances at different concentrations (12.5, 25 and 50 µM) were separately incubated with cells and the number of viable cells was counted after 24, 48 and 72 h. […] O,O-Dibenzyl 4-NC (1) was not active (i.e. not toxic to A. franciscana) in the brine shrimp assay (Table 1).
# 3T3-L1 cells (mouse embryonic fibroblasts) were obtained from the Cell Bank of Rio de Janeiro, Brazil and were maintained in Dulbecco’s Modified Eagle Medium (DMEM) which was supplemented with 10% fetal bovine serum (FBS), penicillin (100 U/mL) and streptomycin (100 U/mL). The cells were incubated at 37 °C in a humidified atmosphere containing 5% of CO2.
# The cytotoxicity of 4-NC and its semi-synthetic derivatives 1–8 to the 3T3L1 mouse embryonic fibroblast cell line fibroblasts was determined by the alamar blue method as described by Nakayama and co-workers. The alamar blue assay is a colorimetric assay involving the cellular reduction of resazurin to resorufin. Briefly, adherent cells (5 × 10^3 cells/well) were grown in 96-well tissue culture plates and exposed to substances (50, 25 and 12.5 μM) for 24, 48 and 72 h. After incubation, the alamar blue solution (10 µL of 0.4% alamar blue (resazurin) in PBS) was added and the cells were incubated for 2 h at 37 °C. Fluorescence was measured (excitation at 545 nm and emission at 595 nm) and expressed as a percentage of the cells in the control after background fluorescence was subtracted. The assays were performed in triplicate.
# [3] = test system: KB tumor cells; set-up: method as in PMID 10364848; details: cited from earlier work
# [4] = test system: Plasmodium berghei; details: cited from earlier work
# [5] = test system: rat brain homogenates; set-up: method as in ref 8 = [8]; 8. De Freitas P.C.D. Atividade Antioxidante de Espécies Medicinais da Família Piperaceae: Pothomorphe umbellata (L.) Miq. e Piper regnelli (Miq.) C. DC Ph.D. Thesis University of São Paulo (USP) São P; details: inhibition of spontaneous lipoperoxidation; cited from earlier work
# [6] = ABTS radical-scavenging activity; type: biochemical; details: compounds tested at 250 µM, mean ± standard deviation, n = 3
# Experimental: The ABTS assay used herein was based on the method of Re et al. with slight modifications. Substances at concentrations of 250 µM, BHT or BHA were added to dilute ABTS solution and the absorbance at […] was measured. The antioxidant activity was calculated using the equation: % inhibition = 100 × (1 − sample abs/control abs).
# [7] = test system: 3T3L1 mouse embryonic fibroblast cell line; assay: Cellular antioxidant activity (oxidation of DCFH-DA); type: cell-based; set-up: inhibition of the oxidation of DCFH-DA in 3T3L1 cells: concentration or dose not given beside the values; details: for loss of antioxidant activity after storage: DMSO solution stored at −20 °C for 30 days; for inhibition of the oxidation of DCFH-DA in 3T3L1 cells: over the observation period of 60 min
# Experimental: These tests evaluate the reducing effect of a given substance on the radical species formed in situ during these assays leading to a decrease in color versus controls that is measured spectrophotometrically. […] Thus, at a concentration of 250 µM, 4-NC inhibited DPPH• and ABTS+• by 97% and 95%, respectively. Mono-O-substituted 4-NC derivatives 2–5 inhibited ABTS+• by 89–93%. […] The antioxidant activity was also evaluated in mouse embryonic 3T3L1 fibroblasts. In this assay DCFH-DA (2',7'-dichlorofluorescein diacetate) is hydrolyzed by intracellular esterases and then oxidized by reactive oxygen species (ROS) to the fluorescent compound 2'-7'-DCF. An active antioxidant substance can inhibit the transformation of fatty acids to fatty acid hydroperoxides in the cell membranes and thereby inhibit the oxidation of DCFH-DA.
# The antioxidant activity of 4-NC and semi-synthetic derivatives of 4-NC was evaluated on the 1st and 30th days after dissolving the substances in DMSO at a concentration of 10 mM and storage in a freezer at −20 °C. This experiment permitted the evaluation of the relative stability of the antioxidant activity of 4-NC, derivatives of 4-NC, BHT and BHA. Thus, cellular antioxidants were evaluated using the mouse embryonic fibroblast 3T3L1 cell line. […] The presence of mono-O or di-O,O substituent groups in the 4-NC derivatives can confer stability relative to 4-NC. Such chemical stability is highly desirable when contemplating the use of such substances in cosmetic and pharmaceutical formulations and foods. Here, 4-NC dissolved in DMSO lost more than 80% of its antioxidant activity after 30 days in the freezer.
# Intracellular ROS production was detected using the non-fluorescent cell permeating compound, 2'7'-dichlorofluorescein diacetate (DCF-DA), as described by Wolfe and Liu. DCF-DA is hydrolyzed by intracellular esterases and then oxidized by hydroperoxides into the fluorescent compound, 2'-7'-DCF. 3T3-L1 cells were seeded at a density of 6 × 10^4 cells/well in a 96-well microplate in 100 μL of growth medium. 24 h after seeding, the growth medium was removed and the wells were washed with PBS. Then, a 10 μM solution of DCFH-DA dissolved in Hank’s buffer (100 μL) was added to wells and incubated for 30 min at 37 °C and 5% CO2. The cells were washed first with PBS (100 μL) then EEP (100 µL) and samples having different concentrations were added. The fluorescence was immediately measured at an excitation wavelength of 485 nm and emission wavelength of 520 nm over 60 min at 5 min intervals. Controls with/without DCFH-DA were prepared and subjected to analogous procedures. Quercetin, BHA and BHT were used as positive controls of antioxidant activity.
# [8] = test system: tumor cell lines; details: cited from earlier work
# [9] = test system: Plasmodium falciparum; set-up: method as in PMID 17568942; details: cited from earlier work
# [10] = test system: human topoisomerase I; set-up: method as in PMID 10364848; details: cited from earlier work
# [11] = DPPH radical-scavenging activity; type: biochemical; details: compounds tested at 250 µM, mean ± standard deviation, n = 3
# Experimental: The measurement of the scavenger activity of DPPH• was carried out according to the method of Molineux with modifications. Substances at 250 µM were added, at an equal volume, to the methanol solution of DPPH• ([…]). After 15 min at room temperature, the absorbance was recorded at 517 nm (sample abs). The experiment was repeated three times. BHT, BHA were used as controls. Values denote percentage of DPPH free radical inhibition. The antioxidant activity was calculated using the equation: % inhibition = 100 × (1 − sample abs/control abs).
# [12] = test system: normal fibroblast cells; set-up: method as in PMID 19059332; details: cited from earlier work
# [13] = test system: Artemia franciscana; assay: Brine shrimp assay; details: in vivo
# [14] = Brine shrimp assay; set-up: species or system Artemia franciscana; details: Artemia franciscana (brine shrimp), in vivo, read-out: Toxicity Brine shrimp (Artemia franciscana) (LC50)
# [15] = test system: leukemia cells (HL-60 strain); set-up: method as in PMID 19084293; details: read-out: IC50 growth of leukemia cells; cited from earlier work
# [16] = test system: colon tumor cells (HCT-8 strain), central nervous system tumor cells (SF295 strain) and leukemia cells (HL-60 strain); set-up: method as in PMID 19084293; details: HCT-8, SF295 and HL-60; read-out: cytotoxicity IC50; cited from earlier work
# [17] = † >500 µg/mL, 4 and 5 tested separately
# [18] = Mus musculus, 3T3-L1, alamar blue
Compound,ABTS (%) percentage of inhibition [6],cytotoxic activity against Artemia franciscana in the brine shrimp assay [13],"LC50 [14, 17]","IC50 [2, 18]",DPPH• (%) percentage of inhibition [11],other results
4-nerolidylcatechol [Compound 4-NC],,,,,,IC50 [1]: 20 to 40 µM; IC50 ([2]; alamar blue): 31.4 µM and 31.5 µM; toxicity in vitro to KB tumor cells [3]: toxic; in vivo activity in Plasmodium berghei-infected mice [4]: low in vivo activity; also recorded: little activity; in vitro antioxidant activity relative to α-tocopherol (vitamin E) [5]: approximately 20 times; ABTS (%) percentage of inhibition ([6]; 250 µM): 95% and 94.82 ± 0.22 ^a %; loss of antioxidant activity after storage ([7]; 3T3L1 cells): more than 80%; inhibition of the oxidation of DCFH-DA in 3T3L1 cells [7]: ≥ 20%; IC50 [8]: 19.7 to 38.8 µM; in vitro activity against Plasmodium falciparum [9]: high in vitro activity; inhibition of human topoisomerase I [10]: inhibits; DPPH• (%) percentage of inhibition ([11]; 250 µM): 97% and 96.53 ± 0.50 ^a %; IC50 [12]: 50 µM
"COc1ccc(O)c(C(C)(C)C)c1 [BHA, butylated hydroxyanisole, reference compound]",94.71 ± 0.47 ^a %,,,,,loss of antioxidant activity after storage ([7]; 3T3L1 cells): ≥ 70%; DPPH• (%) percentage of inhibition ([11]; 250 µM): 98% and 97.97 ± 0.10 ^a %
"Cc1cc(C(C)(C)C)c(O)c(C(C)(C)C)c1 [BHT, butylated hydroxytoluene, reference compound]",93.13 ± 0.18 ^a %,,,,,"increase of antioxidant activity after storage ([7]; DMSO solution, 30 days of storage in the freezer, 3T3L1 cells): approximately 100%; DPPH• (%) percentage of inhibition ([11]; 250 µM): 17% and 16.84 ± 0.81 ^c %"
"C=CC(C)(CC/C=C(\C)CCC=C(C)C)c1ccc(OCc2ccccc2)c(OCc2ccccc2)c1 (centres unmarked) [Compound 1, O,O-Dibenzyl 4-NC]",7.97 ± 2.72 ^b %,not active,> 1000 µM,> 101 µM,4.35 ± 0.71 ^c %,activity against tumor cells [8]: inactive
"C=CC(C)(CC/C=C(\C)CCC=C(C)C)c1ccc(OCc2ccccc2)c(O)c1 (centres unmarked) [Compound 2, 1-O-benzyl 4-NC]",91.12 ± 0.68 ^a %,weak cytotoxic activity,1000 µM,,44.20 ± 0.01 ^b %,activity against tumor cells [8]: inactive
"C=CC(C)(CC/C=C(\C)CCC=C(C)C)c1ccc(O)c(OCc2ccccc2)c1 (centres unmarked) [Compound 3, 2O-monobenzyl derivative of 4-NC]",93.31 ± 0.30 ^a %,weak cytotoxic activity,> 1200 µM,> 124 µM,48.09 ± 1.33 ^b %,"IC50 ([8]; read-out: cytotoxicity IC50 against four tumor cell lines, four tumor cell lines): 25.1 to 41.7 µM"
"C=CC(C)(CC/C=C(\C)CCC=C(C)C)c1ccc(OC)c(O)c1 (centres unmarked) [Compound 4, 1O-monomethyl derivative of 4-NC]",,weak cytotoxic activity,600 µM,,,IC50 [15]: 57.4 µM
"C=CC(C)(CC/C=C(\C)CCC=C(C)C)c1ccc(O)c(OC)c1 (centres unmarked) [Compound 5, 2O-monomethyl 4-NC derivative]",,weak cytotoxic activity,1200 µM,,,IC50 [16]: 43.9 to 63.1 µM
"C=CC(C)(CC/C=C(\C)CCC=C(C)C)c1ccc(OC(=O)c2ccccc2)c(OC(=O)c2ccccc2)c1 (centres unmarked) [Compound 6, O,O-dibenzoyl 4-NC]",8.83 ± 0.23 ^b %,moderately toxic,,> 95.8 µM,3.46 ± 0.63 ^c %,LC50 [14]: 69 µM; inhibition of the oxidation of DCFH-DA in 3T3L1 cells [7]: ≥ 20%; activity against tumor cells [8]: inactive
C=CC(C)(CCC1OC1(C)CCC1OC1(C)C)c1ccc(OC(C)=O)c(OC(C)=O)c1 (centres unmarked) [Compound 8],0.31 ± 0.01 ^c %,,,> 116 µM,7.39 ± 3.66 ^c %,inhibition of the oxidation of DCFH-DA in 3T3L1 cells [7]: ≥ 20%
"O=c1c(O)c(-c2ccc(O)c(O)c2)oc2cc(O)cc(O)c12 [Quercetin, quercetin, reference compound]",99.7 ± 0.02 ^a %,,,,91.4 ± 0.12 ^a %,loss of antioxidant activity after storage ([7]; 3T3L1 cells): ≥ 70%
